Measured values reported in patent US8389679B2, “Targeted antimicrobial moieties” (priority 2009, dated 2013).
Entries after “also recorded” stand apart in the source; their conditions may differ. Read-outs that look alike come from different tables or passages of the source. Where a SMILES comes first, the peptide text is derived from it. Where no end group is shown, it is not given here.

Key:
target microorganisms = experiment: Screen of synthesized peptides for binding to target microorganisms (targeting peptides, Tables 2 and 3); conditions: microorganism(s) the targeting peptide was identified as binding to (Table 3)
Procedure: Once noted, these peptides were batch synthesized on a multiplex peptide synthesizer, yielding 5-10 mg of each peptide that could readily be screened for biological activity (e.g., binding activity and/or antimicrobial activity.
Other suitable targeting peptides include the peptides that have been identified as binding to particular target organisms as shown in Table 3 and/or Table 4.

S. mutans [1] = test system: S. mutans
S. epidermidis [2] = experiment: Microbial population shift assay (mixed planktonic culture); format: cell-based, Staphylococcus epidermidis; conditions: 10 μM peptide, 24 h, FIG. 16
Procedure: (§1) FIG. 16 illustrates the selective activity of dual-targeted and single-targeted MH-STAMPs in mixed culture. […] After incubation, cfu/mL of remaining constituent species were quantitated after plating to selective media. * indicates under 200 surviving cfu/mL recovered.
(§2) Peptide (10 μM) or mock-treatment (1×PBS) was then added and samples were incubated at 37° C. for 24 h under anaerobic conditions (80% N2, 15% CO2, 5% H2). […] Plates were then incubated 37° C. under aerobic conditions (TH plates were incubated anaerobically) and colonies counted after 24 h to determine survivors. […] Gram stains and direct microscopic observation (from select isolated colonies) were undertaken to confirm species identity (data not shown). The detection limit of the assay was 200 cfu/mL.

S. mutans [3] = experiment: as above; format: cell-based, Streptococcus mutans; conditions: 10 μM peptide, 24 h, FIG. 16
Procedure: as §1, §2

E. coli [4] = experiment: as above; format: cell-based, Escherichia coli; conditions: 10 μM peptide, 24 h, FIG. 16
Procedure: as §1, §2

P. aeruginosa [5] = experiment: as above; format: cell-based, Pseudomonas aeruginosa; conditions: 10 μM peptide, 24 h, FIG. 16
Procedure: as §1, §2

S. mutans [6] = experiment: Post-antibiotic effect assay (growth retardation in monoculture); conditions: peptide for 10 min, then fresh medium, FIG. 15A
Procedure: (§3) Agent was then removed and fresh media returned. Culture recovery was measured over time (OD600). Plots represent the average of at least 3 independent experiments with standard deviations.
(§4) The activity and selectivity of MH-STAMPs after a 10 min incubation was determined by growth retardation experiments against targeted and untargeted bacteria in monocultures, as described previously [10, 11]. Cells from overnight cultures were diluted to ˜5×10^6 cfu/mL in MH (or TH with 1% sucrose for S. mutans), normalized by OD600 0.05-0.1 and seeded to 96-well plates. Cultures were then grown under the appropriate conditions for 2 h (3 h for S. mutans) prior to the addition of peptides for 10 min. Plates were then centrifuged at 3000×g for 5 min, the supernatants discarded, fresh medium returned (MH or TH without sucrose for S. mutans), and incubation resumed. Bacterial growth after treatment was then monitored over time by OD600.

bacteria = experiment: Bacterial binding of blank peptide (data not shown)
S. mutans [7] = experiment: Growth phenotype or other activity induced by peptide (Table 9); format: cell-based
S. mutans biofilms = experiment: Binding of targeting peptides by fluorescent microscopy; parameters: species or system Streptococcus mutans; conditions: 25 μM peptide, 5 min; data not shown
Procedure: Binding of Targeting Peptides. The binding of peptides 1—2, 1—3, 1—4, 1—6, 2—1, and 3—1 was assessed by fluorescent microscopy. S. mutans UA159 was grown overnight and diluted 1:5000 in fresh TH with 1% sucrose before seeding to 96-well plates (flat bottom). Biofilms were grown 24 h and the spent medium replaced with 1×PBS containing 25 μM peptide. After 5 min incubation at room temperature, the supernatants were removed and the biofilms washed 2× with 1×PBS and imaged by bright-field and fluorescence microscopy (Nikon E400). Digital images were collected and analyzed for semiquantitative binding assessments with the manufacturers supplied software (SPOT, Diagnostics) (6).

S. aureus = experiment: Post-antibiotic effect assay (growth retardation in monoculture); format: cell-based, Staphylococcus aureus; conditions: peptide for 10 min, then fresh medium, FIG. 15D
S. epidermidis [8] = experiment: as above; conditions: peptide for 10 min, then fresh medium, FIG. 15C
Procedure: as §3, §4

P. aeruginosa [9] = experiment: as above; conditions: peptide for 10 min, then fresh medium, FIG. 15B
E. coli [10] = experiment: as above; format: cell-based, Escherichia coli; conditions: peptide for 10 min, then fresh medium, FIG. 15E
[11] = Library 2 STAMPs, all S. mutans isolates tested, minimum of three independent trials

1T-169 (FARVRRLHQNRILTQPLTNLKYCLRQPIYSD; synthetic novel tartgeting peptide IT-169)
Target(s) (target microorganisms): A. naeslundii, F. nucleatum,; also recorded: P. gingivalis; also recorded: S. epidermidis,; also recorded: S. gordonii, S. mitis, S. mutans,; also recorded: S. oralis, S. salivarious,; also recorded: S. sanguinis

1T-170 (AYGKVFSMDIMLSENDKLIVLRISHHSAWH; synthetic novel tartgeting peptide IT-170)
Target(s) (target microorganisms): P. gingivalis

CC[C@H](C)[C@H](NC(=O)[C@H](Cc1ccccc1)NC(=O)CCCCCCCNC(=O)[C@H](Cc1ccccc1)NC(=O)[C@H](Cc1c[nH]cn1)NC(=O)[C@H](CC(C)C)NC(=O)[C@H](Cc1c[nH]cn1)NC(=O)[C@H](Cc1ccccc1)NC(=O)[C@H](Cc1c[nH]cn1)NC(=O)[C@@H](N)Cc1ccccc1)C(=O)N[C@@H](CCCCN)C(=O)N[C@@H](Cc1c[nH]cn1)C(=O)N[C@@H](Cc1ccccc1)C(=O)N[C@H](C(=O)N[C@@H](Cc1c[nH]cn1)C(=O)N[C@@H](CCCNC(=N)N)C(=O)N[C@@H](Cc1ccccc1)C(N)=O)[C@@H](C)CC [135(LC)2_1, FHFHLHF-[NH(CH2)7CO]-FIKHFIHRF] (HELM PEPTIDE1{F.H.F.H.L.H.F.[O=C(CCCCCCCN[*:1])[*:2]].F.I.K.H.F.I.H.R.F.[am]}$$$$V2.0; N-terminus assumed)
S. mutans (MIC) (S. mutans [1]): 64 µg/mL

CC[C@H](C)[C@H](NC(=O)[C@H](Cc1ccccc1)NC(=O)CCCCCCCNC(=O)[C@H](CCCCNC(=O)CNC(=O)CNC(=O)CNC(=O)[C@H](Cc1c[nH]cn1)NC(=O)[C@H](CCCCN)NC(=O)[C@H](CCCNC(=N)N)NC(=O)[C@H](Cc1c[nH]cn1)NC(=O)[C@H](CCCCN)NC(=O)[C@H](CCCNC(=N)N)NC(=O)[C@H](Cc1c[nH]cn1)NC(=O)[C@H](CCCCN)NC(=O)[C@H](CCCNC(=N)N)NC(=O)[C@H](Cc1c[nH]cn1)NC(=O)[C@H](CCCCN)NC(=O)[C@@H](N)CCCCN)NC(=O)CNC(=O)CNC(=O)CNC(=O)[C@H](C)NC(=O)[C@H](CCC(=O)O)NC(=O)[C@H](CC(N)=O)NC(=O)[C@H](C)NC(=O)[C@H](C)NC(=O)[C@H](CC(=O)O)NC(C)=O)C(=O)N[C@@H](CCCNC(=N)N)C(=O)N[C@@H](CCCCN)C(=O)N[C@@H](Cc1ccccc1)C(=O)N[C@@H](CC(C)C)C(=O)N[C@@H](CCCCN)C(=O)N[C@@H](CCCCN)C(=O)N[C@@H](Cc1c[nH]c2ccccc12)C(=O)N[C@@H](CC(C)C)C(=O)N[C@@H](CC(C)C)C(N)=O [BL(KH)-20] (HELM PEPTIDE1{[ac].D.A.A.N.E.A.G.G.G.K.[O=C(CCCCCCCN[*:1])[*:2]].F.I.R.K.F.L.K.K.W.L.L.[am]}|PEPTIDE2{K.K.H.R.K.H.R.K.H.R.K.H.G.G.G}$PEPTIDE1,PEPTIDE2,11:R3-15:R2$$$V2.0)
recoverable S. epidermidis cfu/mL in mixed culture (in words) (S. epidermidis [2]): unchanged numbers
recoverable S. mutans cfu/mL in mixed culture (in words) (S. mutans [3]): higher than input cfu/mL
recoverable E. coli cfu/mL in mixed culture (in words) (E. coli [4]): unchanged numbers
recoverable P. aeruginosa cfu/mL in mixed culture (in words) (P. aeruginosa [5]): not observed
S. mutans growth after treatment (culture recovery, OD600) (S. mutans [6]): not altered

CC[C@H](C)[C@H](NC(=O)[C@H](Cc1ccccc1)NC(=O)CNC(=O)CNC(=O)CNC(=O)[C@H](Cc1ccccc1)NC(=O)[C@H](Cc1c[nH]cn1)NC(=O)[C@H](CC(C)C)NC(=O)[C@H](Cc1c[nH]cn1)NC(=O)[C@H](Cc1ccccc1)NC(=O)[C@H](Cc1c[nH]cn1)NC(=O)[C@H](Cc1ccccc1)NC(=O)c1ccccc1)C(=O)N[C@@H](CCCCN)C(=O)N[C@@H](Cc1c[nH]cn1)C(=O)N[C@@H](Cc1ccccc1)C(=O)N[C@H](C(=O)N[C@@H](Cc1c[nH]cn1)C(=O)N[C@@H](CCCNC(=N)N)C(=O)N[C@@H](Cc1ccccc1)C(N)=O)[C@@H](C)CC [bz135(L1)2_1, benzoate-FHFHLHFGGGFIKHFIHRF] (HELM PEPTIDE1{[O=C(c1ccccc1)[*:2]].F.H.F.H.L.H.F.G.G.G.F.I.K.H.F.I.H.R.F.[am]}$$$$V2.0)
S. mutans (MIC) (S. mutans [1]; [11]): 32 µg/mL

Ac-FHFHLHFGGGFIKHFIHRF-NH2 [Ac135(L1)2_1, Ac-FHFHLHFGGGFIKHFIHRF]
S. mutans (MIC) (S. mutans [1]): 32 µg/mL

DAANEA-GGG (DAANEAGGG; synthetic BL-1 peptide with no bacterial binding)
bacterial binding (bacteria): no bacterial binding

EIPIQLANDLANYYDISLDSIFFW [G-4]
Organism, effect (S. mutans) (S. mutans [7]): Biofilm structure

FHFHLHF (not fully specified (C-terminus)) [PL-135]
activity against S. mutans relative to progeny STAMPs (S. mutans [1]; FIG. 17 and Table 16): 2 to 4 fold

FHFHLHFAAAFIKHFIHRF-NH2 [135(L2)2_1, FHFHLHFAAAFIKHFIHRF]
S. mutans (MIC) (S. mutans [1]): 16 µg/mL

FHFHLHFAGAFIKHFIHRF-NH2 [135(L13)2_1, FHFHLHFAGAFIKHFIHRF]
S. mutans (MIC) (S. mutans [1]): 32 µg/mL

FHFHLHFGAGAGFIKHFIHRF-NH2 [135(L14)2_1]
S. mutans (MIC) (S. mutans [1]): 32 µg/mL

FHFHLHFGGGFIKHFIHRF-NH2 [135(L1)2_1, FHFHLHFGGGFIKHFIHRF]
S. mutans (MIC) (S. mutans [1]): 16 µg/mL
concentration active against S. mutans (MIC) (S. mutans [1]): lower than 100 μg/mL

FHFHLHFGGGGFIKHFIHRF-NH2 [135(G4)2_1]
S. mutans (MIC) (S. mutans [1]): 16 µg/mL

FHFHLHFGGGGGFIKHFIHRF-NH2 [135(G5)2_1]
S. mutans (MIC) (S. mutans [1]): 16 µg/mL

FHFHLHFGGGGGGFIKHFIHRF-NH2 [135(G6)2_1]
S. mutans (MIC) (S. mutans [1]): 32 µg/mL

FHFHLHFGGGGGGGFIKHFIHRF-NH2 [135(G7)2_1]
S. mutans (MIC) (S. mutans [1]): 32 µg/mL

FHFHLHFGSGSGFIKHFIHRF-NH2 [135(L12)2_1]
S. mutans (MIC) (S. mutans [1]; [11]): 32 µg/mL

FHFHLHFSGSFIKHFIHRF-NH2 [135(L11)2_1, FHFHLHFSGSFIKHFIHRF]
S. mutans (MIC) (S. mutans [1]; [11]): 32 µg/mL

FHLHFHFGGGFRHIFHKIF-NH2 [135i(L1)2_1i, FHLHFHFGGGFRHIFHKIF]
S. mutans (MIC) (S. mutans [1]): 16 µg/mL

FIKHFIHRF [2_1]
binding to S. mutans biofilms (S. mutans biofilms): retain biofilm binding

FIRKFLKKWLL-NH2 [BD2.20, FIRKFLKKWLL]
S. aureus growth after treatment (culture recovery, OD600) (S. aureus): inhibited
recoverable S. epidermidis cfu/mL in mixed culture (in words) (S. epidermidis [2]): significant loss of recoverable cfu/mL
recoverable S. mutans cfu/mL in mixed culture (in words) (S. mutans [3]): significant loss of recoverable cfu/mL
S. epidermidis growth after treatment (culture recovery, OD600) (S. epidermidis [8]): inhibited
recoverable E. coli cfu/mL in mixed culture (in words) (E. coli [4]): significant loss of recoverable cfu/mL
P. aeruginosa growth after treatment (culture recovery, OD600) (P. aeruginosa [9]): robust antimicrobial activity
E. coli growth after treatment (culture recovery, OD600) (E. coli [10]): inhibited
recoverable P. aeruginosa cfu/mL in mixed culture (in words) (P. aeruginosa [5]): significant loss of recoverable cfu/mL
S. mutans growth after treatment (culture recovery, OD600) (S. mutans [6]): robust antimicrobial activity

FRHIFHKIFGGGFHLHFHF-NH2 [2_1i(L1)135i, FRHIFHKIFGGGFHLHFHF]
S. mutans (MIC) (S. mutans [1]): 16 µg/mL

LIKHILHRL [3_1]
binding to S. mutans biofilms (S. mutans biofilms): retain biofilm binding

WWHSWWSTW [1_2]
binding to S. mutans biofilms (S. mutans biofilms): retain biofilm binding

WWKDWWERW [1_4]
binding to S. mutans biofilms (S. mutans biofilms): retain biofilm binding

WWQDWWNEW [1_6]
binding to S. mutans biofilms (S. mutans biofilms): retain biofilm binding

WWSYWWTQW [1_3]
binding to S. mutans biofilms (S. mutans biofilms): retain biofilm binding
